Literature values as cited in patent publication US9398745B2, “Organic composition for protection of crops against black frost and the method for its application” (priority 2014, dated 2016).

System: animals
Details: tests performed on animals

CC(O)CO (stereo not shown) [1,2 propanediol]
toxicity: low toxicity
